In patent US9533973B2, “Allosteric modulators of 5-hydroxytryptamine 2C receptor (5-HT2CR)” (THE BOARD OF REGENTS OF THE UNIVERSITY OF TEXAS SYSTEM, priority 2011, dated 2017):

Test: Solubility of representative compounds (Table 1)
Format: physicochemical
Settings: solvents listed

SMILES	Solubility
CCCCCCCCCC#Cc1ccnc(C(=O)NC(C(C)Cl)C2OC(SC)C(O)C(O)C2O)c1 (centres unmarked) [CYD-3-21, 4-Undec-1-ynyl-pyridine-2-carboxylic acid [2-chloro-1-(3,4,5-trihydroxy-6-methylsulfanyl-tetrahydro-pyran-2-yl)-propyl]-amide]	EtOH, DMSO
O=C(NC(CO)CO)c1ccccc1C1CCNCC1 [CYD-3-33, N-(1,3-Dihydroxypropan-2-yl)-2-(piperidin-4-yl)benzamide]	EtOH, DMSO H2O
O=C(NCC(O)CO)c1ccccc1C1CCNCC1 (centres unmarked) [CYD-3-35, N-(2,3-Dihydroxypropyl)-2-(piperidin-4-yl)benzamide]	EtOH, DMSO, H2O
CCCCCCCCCCC[C@H]1CCN[C@@H](C(=O)N[C@@H](CO)[C@@H](O)c2ccccc2)C1 [CYD-3-47-1, (2R,4S)—N-((1S,2S)-1,3-dihydroxy-1-phenylpropan-2-yl)-4-undecylpiperidine-2-carboxamide]	EtOH, DMSO
CCCCCCCCCCC[C@@H]1CCN[C@H](C(=O)N[C@@H](CO)[C@@H](O)c2ccccc2)C1 [CYD-3-47-2, (2S,4R)—N-((1S,2S)-1,3-dihydroxy-1-phenylpropan-2-yl)-4-undecylpiperidine-2-carboxamide]	EtOH, DMSO
O=C(NCC(O)CO)C1CNCCN1c1ccccc1 (centres unmarked) [CYD-3-49, N-(2,3-Dihydroxypropyl)-1-phenylpiperazine-2-carboxamide]	EtOH, DMSO, H2O

Next, values leading:

Solubility	SMILES
EtOH, DMSO	Cc1ccc(CC[C@H]2CCNC(C(=O)N[C@@H](CO)[C@@H](O)c3ccccc3)C2)cc1 (stereo in doubt) [CYD-6-9-1, (2S,4S)—N-((1S,2S)-1,3-dihydroxy-1-phenylpropan-2-yl)-4-(4-methylphenethyl)piperidine-2-carboxamide]
EtOH, DMSO	CC1CCC(CC[C@H]2CCNC(C(=O)N[C@@H](CO)[C@@H](O)c3ccccc3)C2)CC1 (stereo in doubt) [CYD-6-10-1, (2S,4S)—N-((1S,2S)-1,3-dihydroxy-1-phenylpropan-2-yl)-4-(2-(4-methylcyclohexyl)ethyl)piperidine-2-carboxamide]
EtOH, DMSO	CC1CCC(CC[C@@H]2CCN[C@H](C(=O)N[C@@H](CO)C(O)c3ccccc3)C2)CC1 (stereo in doubt) [CYD-6-10-2, (2S,4R)—N-((1R,2S)-1,3-dihydroxy-1-phenylpropan-2-yl)-4-(2-(4-methylcyclohexyl)ethyl)piperidine-2-carboxamide]
EtOH, DMSO	O=C(N[C@@H](CO)[C@@H](O)c1ccccc1)C1C[C@@H](C2CCCCC2)CCN1 (stereo in doubt) [CYD-6-15-1, (2S,4S)-4-cyclohexyl-N-((1S,2S)-1,3-dihydroxy-1-phenylpropan-2-yl)piperidine-2-carboxamide]
EtOH, DMSO	O=C(N[C@@H](CO)[C@@H](O)c1ccccc1)C1C[C@@H](c2ccccc2)CCN1 (stereo in doubt) [CYD-6-16-1, (2S,4S)—N-((1S,2S)-1,3-dihydroxy-1-phenylpropan-2-yl)-4-phenylpiperidine-2-carboxamide]
EtOH, DMSO, H2O	O=C(N[C@@H](CO)[C@@H](O)c1ccccc1)c1ccccc1C1CCNCC1 [CYD-3-50, N-((1S,2S)-1,3-dihydroxy-1-phenylpropan-2-yl)-2-(piperidin-4-yl)benzamide]
EtOH, DMSO	CS[C@H]1O[C@H]([C@H](NC(=O)C2CC(CCc3ccccc3)CCN2)[C@@H](C)O)[C@H](O)[C@H](O)[C@H]1O (stereo partly drawn) [CYD-3-61, 2,4-cis-4-Phenethyl-piperidine-2-carboxylic acid [2-hydroxy-1-(3,4,5-trihydroxy-6-methylsulfanyl-tetrahydro-pyran-2-yl)-propyl]-amide]
EtOH, DMSO	CS[C@H]1O[C@H]([C@H](NC(=O)C2CC(CCC3CCCCC3)CCN2)[C@@H](C)O)[C@H](O)[C@H](O)[C@H]1O (stereo partly drawn) [CYD-3-62, 2,4-cis-4-(2-Cyclohexyl-ethyl)-piperidine-2-carboxylic acid [2-hydroxy-1-(3,4,5-trihydroxy-6-methylsulfanyl-tetrahydro-pyran-2-yl)-propyl]-amide]
